Results on 9 compounds are retold here after patent US20220081435A1, “ANDROGEN RECEPTOR PROTEIN DEGRADERS” (THE REGENTS OF THE UNIVERSITY OF MICHIGAN, priority 2019, published 2022).

For this assay, the target named is T1, AR protein (Homo sapiens, UniProt P10275, T878A).
T1 construct: The percent AR protein degradation induced by these compounds at various concentrations in LNCaP cells; host or cells: LNCaP
T1 sequence (P10275 1-920 T878A): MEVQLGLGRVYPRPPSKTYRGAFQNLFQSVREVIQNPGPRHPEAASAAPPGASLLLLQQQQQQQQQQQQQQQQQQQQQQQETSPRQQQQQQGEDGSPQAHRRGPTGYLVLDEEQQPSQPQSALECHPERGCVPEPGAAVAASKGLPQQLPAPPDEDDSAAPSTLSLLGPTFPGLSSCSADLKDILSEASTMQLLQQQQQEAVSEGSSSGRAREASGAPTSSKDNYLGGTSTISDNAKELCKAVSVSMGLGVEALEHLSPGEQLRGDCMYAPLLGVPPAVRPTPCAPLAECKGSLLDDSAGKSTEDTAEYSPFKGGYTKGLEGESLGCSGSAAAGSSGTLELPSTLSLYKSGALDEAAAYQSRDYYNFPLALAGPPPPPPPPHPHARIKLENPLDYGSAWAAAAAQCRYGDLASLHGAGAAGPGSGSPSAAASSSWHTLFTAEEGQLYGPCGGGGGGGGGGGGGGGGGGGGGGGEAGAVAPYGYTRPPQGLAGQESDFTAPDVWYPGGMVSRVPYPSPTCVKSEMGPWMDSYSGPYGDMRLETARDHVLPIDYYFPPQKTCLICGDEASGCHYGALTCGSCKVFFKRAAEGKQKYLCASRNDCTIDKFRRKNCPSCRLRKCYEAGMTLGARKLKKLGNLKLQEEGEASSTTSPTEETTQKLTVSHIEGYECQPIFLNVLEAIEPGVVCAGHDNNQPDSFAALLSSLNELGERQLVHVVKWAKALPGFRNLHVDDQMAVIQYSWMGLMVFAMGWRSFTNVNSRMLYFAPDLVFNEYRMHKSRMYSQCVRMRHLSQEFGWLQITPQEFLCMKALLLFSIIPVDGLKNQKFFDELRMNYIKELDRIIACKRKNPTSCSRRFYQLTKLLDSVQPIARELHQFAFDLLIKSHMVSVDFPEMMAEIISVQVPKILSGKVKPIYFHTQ
Kind of assay: AR protein degradation in LNCaP cells (Western blotting). The assay is classed as cell-based. The settings on record: for AR degradation (Western blotting, dose-dependent) / Dmax at 0.1 µM / Dmax at 1 µM / Dmax at 10 µM / Dmax at 0.01 µM: LNCaP; for Dmax at 0.1 µM / Dmax at 1 µM / Dmax at 10 µM: read-out: % AR protein degradation in LNCaP Cells. As to the method:
Cell lines and Cell Culture: All the LNCaP, VCaP and 22RV1 cells used were purchased from American Type Culture Collection (ATCC). […] All of the cells were supplemented with 10% fetal bovine serum (Invitrogen) at 37° C. in a humidified 5% CO2 incubator.
Western Blotting. Treated cells were lysed by RIPA buffer supplemented with protease and phosphatase inhibitors. […] Software ImageJ was used to quantify the percentage of AR degradation. The net protein bands and loading controls are calculated by deducting the background from the inverted band value. The final relative quantification values are the ratio of net band to net loading control.
Background: A western blot detects proteins with antibodies after separation by electrophoresis.

[1] abbreviates: 0.01 μM, treatment time 6 h, average of three independent experiments.
[2] abbreviates: 0.1 μM, treatment time 6 h, average of three independent experiments.
Setting [3] is: 1 μM, treatment time 6 h, average of three independent experiments.
Setting [4] is: 10 μM, treatment time 6 h, average of three independent experiments.

The structures appear in SMILES notation. Where two headings read alike, the source gives them in different places.

In the case of `Cc1cc([C@H](C(=O)N2C[C@H](O)C[C@H]2C(=O)N[C@@H](CC(=O)N2CCC(N3CCC(C#Cc4ccc(C(=O)N[C@H]5C(C)(C)[C@H](Oc6ccc(C#N)c(Cl)c6)C5(C)C)cc4)CC3)CC2)c2ccc(-c3scnc3C)cc2)C(C)C)on1` [Compound 32, (2S,4R)—N—((S)-3-(4-((4-(((1r,3r)-3-(3-Chloro-4-cyanophenoxy)-2,2,4,4-tetramethyl-cyclobutyl)carbamoyl)phenyl)ethynyl)-[1,4′-bipiperidin]-1′-yl)-1-(4-(4-methylthiazol-5-yl)phenyl)-3-oxopropyl)-4-hydroxy-1-((R)-3-methyl-2-(3-methylisoxazol-5-yl)butanoyl)pyrrolidine-2-carboxamide], the “% AR protein degradation in LNCaP Cells” value came out at 76% under setting [1], 98% under setting [2] and 99% under setting [3]. For the same compound, the “AR degradation (Western blotting, dose-dependent)” value is, setting by setting: (at 10 nM) “partial AR degradation”; (at both 100 nM and 1 μM) “essentially complete AR degradation”.
For `Cc1ncsc1-c1ccc(CNC(=O)C2C[C@@H](O)CN2C(=O)[C@@H](NC(=O)CCCCNC(=O)c2ccc(N3C(=S)N(c4ccc(C#N)c(C(F)(F)F)c4)C(=O)C3(C)C)cc2F)C(C)(C)C)cc1` (stereo partly drawn) [Compound 10, (4R)-1-((S)-2-(5-(4-(3-(4-Cyano-3-(trifluoromethyl)phenyl)-5,5-dimethyl-4-oxo-2-thioxoimidazolidin-1-yl)-2-fluorobenzamido)pentanamido)-3,3-dimethylbutanoyl)-4-hydroxy-N-(4-(4-methylthiazol-5-yl)benzyl)pyrrolidine-2-carboxamide], where the note is “6 h”, the Dmax at 0.1 µM turned out to be 16%, the Dmax at 1 µM stood at 20% and the Dmax at 10 µM was 25%.
As for `Cc1ncsc1-c1ccc(CNC(=O)C2C[C@@H](O)CN2C(=O)[C@@H](NC(=O)CCCCCCCCCCNC(=O)c2ccc(N3C(=S)N(c4ccc(C#N)c(C(F)(F)F)c4)C(=O)C3(C)C)cc2F)C(C)(C)C)cc1` (stereo partly drawn) [Compound 16, (4R)-1-((S)-2-(11-(4-(3-(4-Cyano-3-(trifluoromethyl)phenyl)-5,5-dimethyl-4-oxo-2-thioxoimidazolidin-1-yl)-2-fluorobenzamido)undecanamido)-3,3-dimethylbutanoyl)-4-hydroxy-N-(4-(4-methylthiazol-5-yl)benzyl)pyrrolidine-2-carboxamide], under setting [1], the Dmax at 0.01 µM is 11%. Besides, the Dmax at 0.1 µM under setting [2] amounted to 48%. Also, the Dmax at 1 µM under setting [3] is 86%.
Taken in the same sequence, the figures for `Cc1cc([C@H](C(=O)N2C[C@H](O)C[C@H]2C(=O)N[C@@H](CC(=O)NCCCCCCCCCNC(=O)c2ccc(N3C(=S)N(c4ccc(C#N)c(C(F)(F)F)c4)C(=O)C3(C)C)cc2F)c2ccc(-c3scnc3C)cc2)C(C)C)on1` [Compound 26, (2S,4R)—N—((S)-3-((9-(4-(3-(4-Cyano-3-(trifluoromethyl)phenyl)-5,5-dimethyl-4-oxo-2-thioxoimidazolidin-1-yl)-2-fluorobenzamido)nonyl)amino)-1-(4-(4-methylthiazol-5-yl)phenyl)-3-oxopropyl)-4-hydroxy-1-((R)-3-methyl-2-(3-methylisoxazol-5-yl)butanoyl)pyrrolidine-2-carboxamide] were 11%, 50% and 87%.
Compound `Cc1ncsc1-c1ccc(CNC(=O)C2C[C@@H](O)CN2C(=O)[C@@H](NC(=O)CCCCCCCCNC(=O)c2ccc(N3C(=S)N(c4ccc(C#N)c(C(F)(F)F)c4)C(=O)C3(C)C)cc2F)C(C)(C)C)cc1` (stereo partly drawn) [Compound 14, (4R)-1-((S)-2-(9-(4-(3-(4-Cyano-3-(trifluoromethyl)phenyl)-5,5-dimethyl-4-oxo-2-thioxoimidazolidin-1-yl)-2-fluorobenzamido)nonanamido)-3,3-dimethylbutanoyl)-4-hydroxy-N-(4-(4-methylthiazol-5-yl)benzyl)pyrrolidine-2-carboxamide] showed a Dmax at 0.01 µM under setting [1] of 15%. Further, the Dmax at 0.1 µM under setting [2] was determined as 66%. Moreover, under setting [3], the Dmax at 1 µM was 87%.
For `Cc1ncsc1-c1ccc([C@H](CC(=O)N2CCC(N3CCC(C#Cc4ccc(C(=O)N[C@H]5C(C)(C)[C@H](Oc6ccc(C#N)c(Cl)c6)C5(C)C)cc4)CC3)CC2)NC(=O)[C@@H]2C[C@@H](O)CN2C(=O)[C@H](NC(=O)C2(F)CC2)C(C)(C)C)cc1` [Compound 38, (2S,4R)—N—((S)-3-(4-((4-(((1r,3r)-3-(3-Chloro-4-cyanophenoxy)-2,2,4,4-tetramethyl-cyclobutyl)carbamoyl)phenyl)ethynyl)-[1,4′-bipiperidin]-1′-yl)-1-(4-(4-methylthiazol-5-yl)phenyl)-3-oxopropyl)-1-((R)-2-(1-fluorocyclopropane-1-carboxamido)-3,3-dimethyl-butanoyl)-4-hydroxypyrrolidine-2-carboxamide], the “% AR protein degradation in LNCaP Cells” value was less than 5% under setting [2], less than 5% under setting [3] and less than 5% under setting [4].
Turning to `CC(=O)N[C@H](C(=O)N1C[C@H](O)C[C@H]1C(=O)N[C@@H](CC(=O)N1CCC(N2CCC(C#Cc3ccc(C(=O)N[C@H]4C(C)(C)[C@H](Oc5ccc(C#N)c(Cl)c5)C4(C)C)cc3)CC2)CC1)c1ccc(-c2scnc2C)cc1)C(C)(C)C` [Compound 36, (2S,4R)-1-((S)-2-Acetamido-3,3-dimethylbutanoyl)-N—((S)-3-(4-((4-(((1r,3r)-3-(3-chloro-4-cyanophenoxy)-2,2,4,4-tetramethylcyclobutyl)carbamoyl)phenyl)ethynyl)-[1,4′-bipiperidin]-1′-yl)-1-(4-(4-methylthiazol-5-yl)phenyl)-3-oxopropyl)-4-hydroxypyrrolidine-2-carboxamide], the “% AR protein degradation in LNCaP Cells” value runs as follows: under setting [1], 39%; under setting [2], 77%; under setting [3], 99%.
Turning to `Cc1ncsc1-c1ccc(CNC(=O)C2C[C@@H](O)CN2C(=O)[C@@H](NC(=O)CCCN2CCN(c3ccc(C#Cc4ccc(N5C(=S)N(c6ccc(C#N)c(C(F)(F)F)c6)C(=O)C5(C)C)cc4)cn3)CC2)C(C)(C)C)cc1` (stereo partly drawn) [Compound 20, (4R)-1-((S)-2-(4-(4-(5-((4-(3-(4-Cyano-3-(trifluoromethyl)phenyl)-5,5-dimethyl-4-oxo-2-thioxoimidazolidin-1-yl)phenyl)ethynyl)pyridin-2-yl)piperazin-1-yl)butanamido)-3,3-dimethylbutanoyl)-4-hydroxy-N-(4-(4-methylthiazol-5-yl)benzyl)pyrrolidine-2-carboxamide], the Dmax at 0.1 µM under setting [2] turned out to be 50%. The Dmax at 1 µM under setting [3] was 80%. In addition, the Dmax at 10 µM under setting [4] stood at 80%.
Under setting [1], `Cc1ncsc1-c1ccc([C@H](C)NC(=O)[C@@H]2C[C@@H](O)CN2C(=O)[C@@H](NC(=O)CCCCN2CCN(c3ccc(C#Cc4ccc(N5C(=S)N(c6ccc(C#N)c(C(F)(F)F)c6)C(=O)C5(C)C)cc4)cn3)CC2)C(C)(C)C)cc1` [Compound 22, (2S,4R)-1-((S)-2-(5-(4-(5-((4-(3-(4-Cyano-3-(trifluoromethyl)phenyl)-5,5-dimethyl-4-oxo-2-thioxoimidazolidin-1-yl)phenyl)ethynyl)pyridin-2-yl)piperazin-1-yl)pentanamido)-3,3-dimethylbutanoyl)-4-hydroxy-N—((S)-1-(4-(4-methylthiazol-5-yl)phenyl)ethyl)pyrrolidine-2-carboxamide] came in with a Dmax at 0.01 µM of 28%. The Dmax at 0.1 µM under setting [2] came out at 48%. The Dmax at 1 µM under setting [3] stood at 89%.
